Experimental data published in ChEMBL document CHEMBL1165932, “Inhibition of Mycobacterium tuberculosis tyrosine phosphatase PtpA by synthetic chalcones: kinetics, molecular modeling, toxicity and effect on growth” (Bioorg Med Chem, 2010).
pIC50, pKi: −log10 of the molar value. Activity calls are given as the source filed them. The rule behind the calls is not given here.

How the values were obtained:
[1] = molecular target: T1, Tyrosine-protein phosphatase non-receptor type 1 (Homo sapiens, UniProt P18031); test: Inhibition of human PTP1B
T1 sequence (P18031 whole entry): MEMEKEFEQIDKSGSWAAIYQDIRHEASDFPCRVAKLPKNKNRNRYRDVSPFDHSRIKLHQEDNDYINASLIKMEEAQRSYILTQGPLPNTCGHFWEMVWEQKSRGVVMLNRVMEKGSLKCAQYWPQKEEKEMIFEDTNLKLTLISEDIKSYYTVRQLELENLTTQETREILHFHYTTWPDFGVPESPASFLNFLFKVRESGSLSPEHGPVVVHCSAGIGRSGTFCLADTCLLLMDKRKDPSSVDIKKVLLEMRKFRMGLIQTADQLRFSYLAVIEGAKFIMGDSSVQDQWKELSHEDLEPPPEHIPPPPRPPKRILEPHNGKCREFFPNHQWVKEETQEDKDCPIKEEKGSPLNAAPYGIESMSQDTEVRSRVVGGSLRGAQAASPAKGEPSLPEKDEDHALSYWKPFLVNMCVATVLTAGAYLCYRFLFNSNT

[2] = molecular target: T2, Low molecular weight protein-tyrosine phosphatase A (Mycobacterium tuberculosis, UniProt P9WIA1); test: Inhibition of Mycobacterium tuberculosis PTPA-mediated pNPP hydrolysis
T2 sequence (P9WIA1 whole entry): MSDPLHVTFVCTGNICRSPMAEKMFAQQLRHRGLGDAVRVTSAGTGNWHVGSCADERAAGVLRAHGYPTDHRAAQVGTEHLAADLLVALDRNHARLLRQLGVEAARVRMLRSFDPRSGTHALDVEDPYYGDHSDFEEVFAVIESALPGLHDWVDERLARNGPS

[3] = system: Mycobacterium tuberculosis; test: Antibacterial activity against Mycobacterium tuberculosis H37Rv infected in human THP1 cells assessed as reduction of bacterial burden at 40 uM after 96 hrs; type: functional; details: THP-1, 96 h
[4] = molecular target: T3, Phosphotyrosine-protein phosphatase PTPB (Mycobacterium tuberculosis) (UniProt P96830); test: Inhibition of Mycobacterium tuberculosis PTPB at 100 uM after 20 mins by ELISA
T3 sequence (whole entry): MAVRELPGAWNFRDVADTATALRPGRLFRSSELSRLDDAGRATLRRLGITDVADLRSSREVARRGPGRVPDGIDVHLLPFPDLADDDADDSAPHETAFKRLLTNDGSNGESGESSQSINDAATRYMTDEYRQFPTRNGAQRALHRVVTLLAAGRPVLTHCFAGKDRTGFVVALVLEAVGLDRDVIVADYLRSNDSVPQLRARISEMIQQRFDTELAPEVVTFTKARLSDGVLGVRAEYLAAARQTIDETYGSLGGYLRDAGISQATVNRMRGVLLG

[5] = molecular target: T4, Low molecular weight protein-tyrosine phosphatase A (Mycobacterium tuberculosis) (UniProt P9WIA1); test: Competitive inhibition of Mycobacterium tuberculosis PTPA by Lineweaver-Burke plot analysis
T4 sequence (whole entry): T2 sequence (P9WIA1 whole entry)

[6] = system: Mycobacterium tuberculosis; test: Antibacterial activity against Mycobacterium tuberculosis H37Rv infected in human THP1 cells assessed as reduction of bacterial burden at 20 uM after 48 hrs; type: functional; details: for inhibition at 20 µM: THP-1, 48 h; for inhibition: THP-1
[7] = system: THP-1; test: Cytotoxicity against human THP1 cells at 40 uM after 24 hrs by flow cytometry; type: cell-based; details: thp-1, 24 h
[8] = molecular target: T4, Low molecular weight protein-tyrosine phosphatase A (Mycobacterium tuberculosis); test: Inhibition of Mycobacterium tuberculosis PTPA-mediated dephosphorylation of VPS33B assessed as increase in phosphorylated VPS33B level after 15 mins by scintillation counting
[9] = molecular target: T5, Phosphotyrosine-protein phosphatase PTPB (Mycobacterium tuberculosis, UniProt P96830); test: Inhibition of N-terminal histidine-tagged Mycobacterium tuberculosis PTPB expressed in Escherichia coli BL21 (DE3) after 45 mins by fluorescence assay
T5 sequence (P96830 whole entry): T3 sequence (whole entry)

[10] = system: THP-1; test: Cytotoxicity against human THP1 cells at 4 uM after 24 hrs by flow cytometry; type: cell-based; details: thp-1, 24 h
[11] = system: Mycobacterium tuberculosis; test: Antibacterial activity against Mycobacterium tuberculosis H37Rv infected in human THP1 cells assessed as reduction of bacterial burden at 10 uM after 24 hrs; type: functional, organism-based; details: THP-1
[12] = molecular target: T2, Low molecular weight protein-tyrosine phosphatase A; test: Inhibition of Mycobacterium tuberculosis PTPA after 20 mins by ELISA

| Compound | pIC50 [1] | pKi [2] | inhibition at 40 µM [3] [%] | inhibition [4] | inhibition [5] | inhibition at 20 µM [6] [%] | Activity [7] [%] | inhibition [8] | inhibition [6] | pIC50 [9] | Activity [10] [%] | inhibition [11] | pIC50 [12] |
| --- | --- | --- | --- | --- | --- | --- | --- | --- | --- | --- | --- | --- | --- |
| O=C(/C=C/c1cccc2ccccc12)c1ccccc1O | 3.80 | 5.04 | 77 | inactive | Active | 50 | 2 | Dose-dependent effect |  |  |  |  |  |
| COc1ccc(C(=O)/C=C/c2ccc3ccccc3c2)cc1OC | 2.90 | 5.31 | 40 | inactive | Active |  | 1.6 |  | inactive |  |  |  |  |
| NC1=S2C=CC(S(N)(=O)=O)=C2C(=O)C1=O (configuration not stated) |  |  |  |  |  |  |  |  |  | 6.36 |  |  |  |
| COc1ccc(OC)c(C(=O)/C=C/c2ccc3ccccc3c2)c1 | 3.84 | 5.27 | 90 | inactive | Active | 50 | 83.1 |  |  |  | 1.3 |  |  |
| COc1ccc(OC)c(C(=O)/C=C/c2cccc3ccccc23)c1 | 3.67 | 4.67 | 90 | inactive | Active | 77 | 77.8 |  |  |  | 0.9 | inactive |  |
| COc1cc(C(=O)/C=C/c2ccc3ccccc3c2)ccc1O | 3.91 | 4.75 | 80 | inactive | Active |  | 10.5 |  | inactive |  | 0.9 |  | 4.27 |
